Test results from patent US20250344698A1, “A METHOD OF CONTROLLING WEEDS” (SYNGENTA CROP PROTECTION AG, priority 2022, published 2025).

Test system: A. tuberculatus, about 60-70% of which contain the ΔG210 mutation
Experiment: Field trial, Illinois USA, visual % weed control
Type: in vivo, Amaranthus tuberculatus
Details: visually assessed 14 days after application

## COC(=O)CCNC(=O)C(C)Sc1cc(-n2c(=O)cc(C(F)(F)F)n(C)c2=O)c(F)cc1Cl (stereo not drawn) [Tiafenacil]
Use rate 50 g ai/ha
  Control (%): 33%
Use rate 100 g ai/ha
  Control (%): 30%
Use rate 150 g ai/ha
  Control (%): 33%
